In experiment [1] the target is T1, PLK1 (Homo sapiens, UniProt P53350).
T1 construct: endogenous in cells; host or cells: HeLa LgBit (Plk1-HiBit KI): HeLa stably expressing LgBit, with a CRISPR/Cas9 knock-in of HiBit at the endogenous PLK1 locus
In words: Luciferase assay for PLK1 in HeLa LgBit (Plk1-HiBit KI) cell line. The class given is cell-based. The note with it: 300 nM compound, luminescence after 9 hours. In a few lines:
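HeLa cells stably expressing LgBit, with HiBit knocked in at the C-terminus of endogenous Plk1, released from a 24 h 2 mM thymidine block and grown 18 h. Endurazine added, then compound at 300 nM; luminescence tracked in real time, expressed as ratio to DMSO.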

Experiment [2] deals with NCI-H526 cell line. Put plainly: Cell viability assay for H526 cell (EZ-Cytox). The class given is cell-based. The note with it: Homo sapiens, NCI-H526, 120 h; H526 cells, 5 days, 3000 nM to 0.46 nM. The protocol:
(1) Culture of NCI-H526 Cell Line
(2) Treatment of Compounds of the Present Invention and Method of Cell Viability Assay
After treating the compound to each well to make the total volume of 200 μL, it was cultured in a CO2 incubator (Thermo Fisher Science, Cat. No. 4111) for 5 days.
The absorbance of the completely cultured sample was measured by setting the wavelength of a plate reader (BMG Labtech, CLARIOstar Plus) to […], and was measured after shaking for 3 minutes in a plate reader before measurement.
In Table 3, Activity represents IC50 value of each Exemplary Compound treatment group to H526 cell line (A: <30 nM, B: <50 nM, C: <100 nM, D: <200 nM, E: <400 nM).

T1 sequence (P53350 whole entry): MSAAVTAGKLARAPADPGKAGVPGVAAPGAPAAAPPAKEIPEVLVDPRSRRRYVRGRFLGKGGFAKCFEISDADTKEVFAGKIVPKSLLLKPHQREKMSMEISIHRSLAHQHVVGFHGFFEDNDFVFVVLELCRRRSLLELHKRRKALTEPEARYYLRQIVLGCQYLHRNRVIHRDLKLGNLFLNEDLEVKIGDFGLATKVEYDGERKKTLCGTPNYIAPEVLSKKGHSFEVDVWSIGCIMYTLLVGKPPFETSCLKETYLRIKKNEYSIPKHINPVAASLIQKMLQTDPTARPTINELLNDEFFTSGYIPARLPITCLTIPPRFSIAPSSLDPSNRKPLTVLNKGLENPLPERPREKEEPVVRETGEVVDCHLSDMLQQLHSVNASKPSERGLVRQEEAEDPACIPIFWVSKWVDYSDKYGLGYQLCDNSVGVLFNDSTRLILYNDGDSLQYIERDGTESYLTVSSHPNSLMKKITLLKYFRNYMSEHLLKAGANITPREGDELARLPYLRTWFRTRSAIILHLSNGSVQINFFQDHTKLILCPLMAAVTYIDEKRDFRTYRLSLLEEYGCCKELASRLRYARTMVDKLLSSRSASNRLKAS

As to `COc1cc(C(=O)NC2CCN(C(=O)CCCNc3cccc4c3C(=O)N(C3CCC(=O)NC3=O)C4=O)CC2)c(F)cc1Nc1ncc2c(n1)N(C(C)C)CC(F)(F)C(=O)N2C` (centres unmarked) [Compound 33, 4-((7,7-difluoro-9-isopropyl-5-methyl-6-oxo-6,7,8,9-tetrahydro-5H-pyrimido[4,5-b][1,4]diazepin-2-yl)amino)-N-(1-(4-((2-(2,6-dioxopiperidin-3-yl)-1,3-dioxoisoindolin-4-yl)amino)butanoyl)piperidin-4-yl)-2-fluoro-5-methoxybenzamide], the “Activity: ratio of the luminescense value of each Exemplary Compound treatment group to DMSO treatment group” value (“Activity: ratio” for short) in experiment [1] is recorded as “++ (++<0.6)”. Further, the half-maximal inhibitory concentration (IC50) in experiment [2] was below 0.2 µM.
In the case of `COc1cc(C(=O)N[C@H]2CCCN(C(=O)CN3CCN(c4cccc5c4C(=O)N(C4CCC(=O)NC4=O)C5=O)CC3)C2)ccc1Nc1ncc2c(n1)N(C1CCCC1)CC(F)(F)C(=O)N2C` (stereo partly drawn) [Compound 147, 4-((9-cyclopentyl-7,7-difluoro-5-methyl-6-oxo-6,7,8,9-tetrahydro-5H-pyrimido[4,5-b][1,4]diazepin-2-yl)amino)-N-((3S)-1-(2-(4-(2-(2,6-dioxopiperidin-3-yl)-1,3-dioxoisoindolin-4-yl)piperazin-1-yl)acetyl)piperidin-3-yl)-3-methoxybenzamide], the “Activity: ratio” value in experiment [1] is given as “+++ (+++: <0.3)”. The compound also yielded a 50% inhibitory concentration (IC50) in experiment [2] below 0.05 µM.
Turning to `COc1cc(C(=O)N2CCC(CCN3CCN(c4cccc5c4C(=O)N(C4CCC(=O)NC4=O)C5=O)CC3)CC2)ccc1Nc1ncc2c(n1)N(C1CCCC1)CC(F)(F)C(=O)N2C` (centres unmarked) [Compound 94, 4-(4-(2-(1-(4-((9-cyclopentyl-7,7-difluoro-5-methyl-6-oxo-6,7,8,9-tetrahydro-5H-pyrimido[4,5-b][1,4]diazepin-2-yl)amino)-3-methoxybenzoyl)piperidin-4-yl)ethyl)piperazin-1-yl)-2-(2,6-dioxopiperidin-3-yl)isoindoline-1,3-dione], the “Activity: ratio” value in experiment [1] is on record as “++ (++<0.6)”. Further, the IC50 in experiment [2] was below 0.4 µM.
For `COc1cc(C(=O)N[C@@H]2CCCN(C(=O)CN3CCN(c4cccc5c4C(=O)N(C4CCC(=O)NC4=O)C5=O)CC3)C2)ccc1Nc1ncc2c(n1)N(C1CCCC1)CC(F)(F)C(=O)N2C` (stereo partly drawn) [Compound 146, 4-((9-cyclopentyl-7,7-difluoro-5-methyl-6-oxo-6,7,8,9-tetrahydro-5H-pyrimido[4,5-b][1,4]diazepin-2-yl)amino)-N-((3R)-1-(2-(4-(2-(2,6-dioxopiperidin-3-yl)-1,3-dioxoisoindolin-4-yl)piperazin-1-yl)acetyl)piperidin-3-yl)-3-methoxybenzamide], in that order: “+++ (+++: <0.3)” and below 0.05 µM.
In the case of `COc1cc(C(=O)NC2CCN(C(=O)CCCSc3cccc4c3C(=O)N(C3CCC(=O)NC3=O)C4=O)CC2)c(F)cc1Nc1ncc2c(n1)N(C1CCCC1)CC(F)(F)C(=O)N2C` (centres unmarked) [Compound 42, 4-((9-cyclopentyl-7,7-difluoro-5-methyl-6-oxo-6,7,8,9-tetrahydro-5H-pyrimido[4,5-b][1,4]diazepin-2-yl)amino)-N-(1-(4-((2-(2,6-dioxopiperidin-3-yl)-1,3-dioxoisoindolin-4-yl)thio)butanoyl)piperidin-4-yl)-2-fluoro-5-methoxybenzamide], the “Activity: ratio” value in experiment [1] is on record as “++ (++<0.6)”. The same compound had an IC50 in experiment [2] below 0.1 µM.
In the same order, the values of `COc1cc(C(=O)NC2CCN(C(=O)CN3CCN(c4ccc5c(c4)C(=O)N(C4CCC(=O)NC4=O)C5=O)CC3)CC2)ccc1Nc1ncc2c(n1)N(C1CCCC1)CC(F)(F)C(=O)N2C` (centres unmarked) [Compound 127, 4-((9-cyclopentyl-7,7-difluoro-5-methyl-6-oxo-6,7,8,9-tetrahydro-5H-pyrimido[4,5-b][1,4]diazepin-2-yl)amino)-N-(1-(2-(4-(2-(2,6-dioxopiperidin-3-yl)-1,3-dioxoisoindolin-5-yl)piperazin-1-yl)acetyl)piperidin-4-yl)-3-methoxybenzamide] are “++ (++<0.6)” and below 0.1 µM.
Consider `COc1cc(C(=O)NC2CCN(CCOc3cccc4c3C(=O)N(C3CCC(=O)NC3=O)C4=O)CC2)c(F)cc1Nc1ncc2c(n1)N(C1CCCC1)CC(F)(F)C(=O)N2C` (centres unmarked) [Compound 2, 4-((9-cyclopentyl-7,7-difluoro-5-methyl-6-oxo-6,7,8,9-tetrahydro-5H-pyrimido[4,5-b][1,4]diazepin-2-yl)amino)-N-(1-(2-((2-(2,6-dioxopiperidin-3-yl)-1,3-dioxoisoindolin-4-yl)oxy)ethyl)piperidin-4-yl)-2-fluoro-5-methoxybenzamide], for which, in experiment [1], the “Activity: ratio” value is “++ (++<0.6)”. For the same compound, the IC50 in experiment [2] was below 0.2 µM.
In the same order, the values of `COc1cc(C(=O)NN2CCN(C(=O)CCCNc3cccc4c3C(=O)N(C3CCC(=O)NC3=O)C4=O)CC2)c(F)cc1Nc1ncc2c(n1)N(C1CCCC1)CC(F)(F)C(=O)N2C` (centres unmarked) [Compound 29, 4-((9-cyclopentyl-7,7-difluoro-5-methyl-6-oxo-6,7,8,9-tetrahydro-5H-pyrimido[4,5-b][1,4]diazepin-2-yl)amino)-N-(4-(4-((2-(2,6-dioxopiperidin-3-yl)-1,3-dioxoisoindolin-4-yl)amino)butanoyl)piperazin-1-yl)-2-fluoro-5-methoxybenzamide] are “++ (++<0.6)” and below 0.03 µM.
In the same order, the values of `COc1cc(N2CCC(CN3CCN(c4cccc5c4C(=O)N(C4CCC(=O)NC4=O)C5=O)CC3)CC2)c(F)cc1Nc1ncc2c(n1)N(C1CCCC1)CC(F)(F)C(=O)N2C` (centres unmarked) [Compound 103, 4-(4-((1-(4-((9-cyclopentyl-7,7-difluoro-5-methyl-6-oxo-6,7,8,9-tetrahydro-5H-pyrimido[4,5-b][1,4]diazepin-2-yl)amino)-2-fluoro-5-methoxyphenyl)piperidin-4-yl)methyl)piperazin-1-yl)-2-(2,6-dioxopiperidin-3-yl)isoindoline-1,3-dione] are “++ (++<0.6)” and below 0.2 µM.
For `COc1cc(C(=O)NCCCOCCCOCCOc2cccc3c2CN(C2CCC(=O)NC2=O)C3=O)ccc1Nc1ncc2c(n1)N(C1CCCC1)CC(F)(F)C(=O)N2C` (centres unmarked) [Compound 20, 4-((9-cyclopentyl-7,7-difluoro-5-methyl-6-oxo-6,7,8,9-tetrahydro-5H-pyrimido[4,5-b][1,4]diazepin-2-yl)amino)-N-(3-(3-(2-((2-(2,6-dioxopiperidin-3-yl)-1-oxoisoindolin-4-yl)oxy)ethoxy)propoxy)propyl)-3-methoxybenzamide], in that order: “++ (++<0.6)” and below 0.2 µM.
For the compound `COc1cc(C(=O)NC2CCN(CC3CN(c4cccc5c4C(=O)N(C4CCC(=O)NC4=O)C5=O)C3)CC2)ccc1Nc1ncc2c(n1)N(C1CCCC1)CC(F)(F)C(=O)N2C` (centres unmarked) [Compound 135, 4-((9-cyclopentyl-7,7-difluoro-5-methyl-6-oxo-6,7,8,9-tetrahydro-5H-pyrimido[4,5-b][1,4]diazepin-2-yl)amino)-N-(1-((1-(2-(2,6-dioxopiperidin-3-yl)-1,3-dioxoisoindolin-4-yl)azetidin-3-yl)methyl)piperidin-4-yl)-3-methoxybenzamide], the “Activity: ratio” value in experiment [1] is “+++ (+++: <0.3)”. The compound also had an IC50 in experiment [2] below 0.05 µM.
For the compound `COc1cc(C(=O)N2CCC(CN3CCN(c4ccc5c(c4)C(=O)N(C4CCC(=O)NC4=O)C5=O)CC3)CC2)ccc1Nc1ncc2c(n1)N(C1CCCC1)CC(F)(F)C(=O)N2C` (centres unmarked) [Compound 97, 5-(4-((1-(4-((9-cyclopentyl-7,7-difluoro-5-methyl-6-oxo-6,7,8,9-tetrahydro-5H-pyrimido[4,5-b][1,4]diazepin-2-yl)amino)-3-methoxybenzoyl)piperidin-4-yl)methyl)piperazin-1-yl)-2-(2,6-dioxopiperidin-3-yl)isoindoline-1,3-dione], in experiment [1], the “Activity: ratio” value is on record as “++ (++<0.6)”. This compound also yielded an IC50 in experiment [2] below 0.4 µM.
In the same order, the values of `COc1cc(C(=O)NC2CCCN(C(=O)CN3CCN(c4cccc5c4C(=O)N(C4CCC(=O)NC4=O)C5=O)CC3)C2)ccc1Nc1ncc2c(n1)N(C1CCCC1)CC(F)(F)C(=O)N2C` (centres unmarked) [Compound 122, 4-((9-cyclopentyl-7,7-difluoro-5-methyl-6-oxo-6,7,8,9-tetrahydro-5H-pyrimido[4,5-b][1,4]diazepin-2-yl)amino)-N-(1-(2-(4-(2-(2,6-dioxopiperidin-3-yl)-1,3-dioxoisoindolin-4-yl)piperazin-1-yl)acetyl)piperidin-3-yl)-3-methoxybenzamide] are “+++ (+++: <0.3)” and below 0.03 µM.

(Values after patent publication US20250114460A1, “NOVEL PLK1 DEGRADATION INDUCING COMPOUND” (UPPTHERA, INC., priority 2021, published 2025).)
